# From patent US4376789A, “Surfactants which are polyhydric alcohol partial esters of adducts of maleic anhydride with an unsaturated carboxylic acid” (Grillo-Werke AG, priority 1980, dated 1983)
# Tested on: eye
# Experiment: Eye irritation test according to Draize
# Type: in vivo
# From the text: The good compatibility of the partial esters according to the invention with skin and mucous membranes is evident from the following investigations. In Table 1, the results of an eye irritation test, according to Draize, for the products of the invention are compared with those of anionic surfactants known to be acceptable dermatologically. It should be noted that substantially higher concentrations of the active products of the invention, than of the prior art compounds, were used in the test.
# The Draize test was performed according to the provisions of the Appraisal of the Safety of Chemicals in Food, Drugs and Cosmetics, published by the United States Food and Drug Administration in 1959. According to this method, appraisal points are assigned as follows: […]
Molecule,"Evaluation points according to Draize score (concentration % active substance: 100 (Examples 1, 3, 4), 65 (Example 2), 50 (Example 5, Na lauryl ether sulfate, undecylic acid semi-ester Na salt), 40 (tallow coco fat alcohol sulfate Na salt), 35 (ammonium lauryl sulfate)) [Points]",Evaluation points according to Draize score (in vivo) [Points],Evaluation range (Draize) (in vivo)
CCCCCCCCCCCCOS(=O)(=O)O.N [Ammonium lauryl sulfate],12.9,,
Tallow coco fat alcohol sulfate Na salt,,24.3,Slightly irritant
CCCCCCCCCCC(=O)NCCOC(=O)CC(C(=O)[O-])S(=O)(=O)O.CCCCCCCCCCC(=O)NCCOC(=O)CC(C(=O)[O-])S(=O)(=O)O.[Na+].[Na+] (stereo not shown) [Na salt of undecylic acid monethanolamide sulfo succinic acid semi-ester],,19.6,Slightly irritant
Na lauryl ether sulfate,,14.2,Slightly irritant
